# Assay results as given in US11959083B2, “Immunosuppression-reverting oligonucleotides inhibiting the expression of CD39” (Secarna Pharmaceuticals GmbH & Co. KG, priority 2016, dated 2024).
# l = locked nucleic acid (LNA); d = 2'-deoxy (DNA)
# Key:
# Type in all cases: cell-based, human
# hCD39 mRNA [1] = experiment: hCD39 mRNA knockdown efficacy screen in A-172 cells (single dose, gymnotic delivery, QuantiGene Singleplex); conditions: 10 μM, 3 days; for Mean hCD39 mRNA expression (relative to untreated cells set as 1): first screening round; for Mean hCD39 mRNA expression (relative to untreated cells set as 1) / Relative hCD39 mRNA expression (compared to non-treated cells): normalized to HPRT1; for Relative hCD39 mRNA expression (compared to non-treated cells): second screening round
# Procedure, shortened: (§1)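 Antisense oligonucleotides given once at 10 μM without transfection reagent (gymnotic) to HDLM-2 or A-172 cells for 3 days. hCD39 mRNA measured by QuantiGene Singleplex, normalized to HPRT1 and expressed relative to untreated cells; triplicate means.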
# hCD39 mRNA [2] = experiment: IC50 determination / concentration-dependent hCD39 mRNA knockdown in HDLM-2 cells; conditions: for mRNA inhibition: HDLM-2, 3 days; for IC50: HDLM-2 cells, hCD39 mRNA, 3 days
# Experimental: HDLM-2 cells were treated for 3 days with the indicated concentration of the respective antisense oligonucleotide. Residual hCD39 expression is depicted compared to untreated control cells. hCD39 mRNA expression values were normalized to expression of the housekeeping gene HPRT1.
# The antisense oligonucleotide A04040H (SEQ ID No. 3) that had shown potent activity in the first and second screening round was used as reference. HDLM-2 cells treated for 3 days with the indicated concentrations of the respective antisense oligonucleotide. hCD39 mRNA expression values were normalized to expression of the housekeeping gene HPRT1. Residual hCD39 mRNA expression relative to untreated cells (set as 100) is depicted. Depicted is the mean of triplicate wells+/−SD.
# In a second experiment the concentration-dependency of effects and the IC50 values of hCD39 antisense oligonucleotides A04010H (SEQ ID No.14), A04016H (SEQ ID No.20), A04017H (SEQ ID No.21), A04020H (SEQ ID No. 24) and A04026H (SEQ ID No.30) were tested. […] HDLM-2 cells were treated with titrated amounts of the respective antisense oligonucleotide (concentrations: 10 μM, 3.3 μM, 1.1 μM, 370 nM, 120 nM, 41 nM, 14 nM, 4.5 nM). hCD39 mRNA expression was analyzed after three days of treatment. FIG. 5 and Table 9 depicts the concentration-dependent reduction of hCD39 mRNA expression by the selected hCD39 antisense oligonucleotides.
# The hCD39 antisense oligonucleotides A04051H (SEQ ID No.88), A04052H (SEQ ID No.89), A04053H ([…]), A04056H (SEQ ID No.92), A04059H (SEQ ID No.94), A04060H (SEQ ID No.95), and A04061H (SEQ ID No.96) had shown potent single-dose activity in both HDLM-2 and A-172 cells. […] The antisense oligonucleotide A04040H that had shown potent activity in the first screening round was used as reference. hCD39 mRNA expression was analyzed after 3 days of treatment. FIG. 7 depicts the concentration-dependent reduction of hCD39 expression by hCD39 antisense oligonucleotides.
# hCD39 mRNA [3] = experiment: hCD39 mRNA knockdown efficacy screen in HDLM-2 cells (single dose, gymnotic delivery, QuantiGene Singleplex); conditions: 10 μM, 3 days; for Mean hCD39 mRNA expression normalized to HPRT1 relative to untreated control = 1: first screening round; for Relative hCD39 mRNA expression (compared to non-treated cells): second screening round, normalized to HPRT1
# Procedure, shortened: as §1
# [4] = second screening round (Table 9)
substance,measurement,setting,value
"+C*+T*+T*G*A*A*C*A*C*T*G*C*+G*+A*+T (antisense CTTGAACACTGCGAT; sugars from the 5' end l3 d9 l3, all phosphorothioate, methylation of C not given here) [A04017H]",Mean hCD39 mRNA expression (relative to untreated cells set as 1),hCD39 mRNA [1],0.11
same,Relative hCD39 mRNA expression (compared to non-treated cells),hCD39 mRNA [1],0.11
same,mRNA inhibition,"hCD39 mRNA [2]; 0.0045 μM, Table 9",33.85%
same,mRNA inhibition,"hCD39 mRNA [2]; 0.013 μM, Table 9",49.62%
same,mRNA inhibition,"hCD39 mRNA [2]; 0.04 μM, Table 9",62.92%
same,mRNA inhibition,"hCD39 mRNA [2]; 0.12 μM, Table 9",79.03%
same,mRNA inhibition,"hCD39 mRNA [2]; 0.4 μM, Table 9",91.63%
same,mRNA inhibition,"hCD39 mRNA [2]; 1.1 μM, Table 9",97.05%
same,mRNA inhibition,"hCD39 mRNA [2]; 3.3 μM, Table 9",98.95%
same,mRNA inhibition,"hCD39 mRNA [2]; 10 μM, Table 9",99.37%
same,IC50,hCD39 mRNA [2]; [4],33.1 nM
same,Mean hCD39 mRNA expression normalized to HPRT1 relative to untreated control = 1,hCD39 mRNA [3],0.11
same,Relative hCD39 mRNA expression (compared to non-treated cells),hCD39 mRNA [3],0.11
"+G*+A*+T*A*G*T*T*T*C*C*A*A*T*+A*+C*+C (antisense GATAGTTTCCAATACC; sugars from the 5' end l3 d10 l3, all phosphorothioate, methylation of C not given here) [A04026H]",Mean hCD39 mRNA expression (relative to untreated cells set as 1),hCD39 mRNA [1],0.07
same,Relative hCD39 mRNA expression (compared to non-treated cells),hCD39 mRNA [1],0.08
same,mRNA inhibition,"hCD39 mRNA [2]; 0.0045 μM, Table 9",29.98%
same,mRNA inhibition,"hCD39 mRNA [2]; 0.013 μM, Table 9",29.02%
same,mRNA inhibition,"hCD39 mRNA [2]; 0.04 μM, Table 9",54.32%
same,mRNA inhibition,"hCD39 mRNA [2]; 0.12 μM, Table 9",77.36%
same,mRNA inhibition,"hCD39 mRNA [2]; 0.4 μM, Table 9",92.99%
same,mRNA inhibition,"hCD39 mRNA [2]; 1.1 μM, Table 9",96.69%
same,mRNA inhibition,"hCD39 mRNA [2]; 3.3 μM, Table 9",99.20%
same,mRNA inhibition,"hCD39 mRNA [2]; 10 μM, Table 9",98.59%
same,IC50,hCD39 mRNA [2]; [4],61.5 nM
same,Mean hCD39 mRNA expression normalized to HPRT1 relative to untreated control = 1,hCD39 mRNA [3],0.03
same,Relative hCD39 mRNA expression (compared to non-treated cells),hCD39 mRNA [3],0.03
"+G*+A*G*T*G*C*C*T*G*A*T*C*C*+T*+T (antisense GAGTGCCTGATCCTT; sugars from the 5' end l2 d11 l2, all phosphorothioate, methylation of C not given here) [A04010H]",Mean hCD39 mRNA expression (relative to untreated cells set as 1),hCD39 mRNA [1],0.10
same,Relative hCD39 mRNA expression (compared to non-treated cells),hCD39 mRNA [1],0.11
same,mRNA inhibition,"hCD39 mRNA [2]; 0.0045 μM, Table 9",20.11%
same,mRNA inhibition,"hCD39 mRNA [2]; 0.013 μM, Table 9",24.68%
same,mRNA inhibition,"hCD39 mRNA [2]; 0.04 μM, Table 9",52.80%
same,mRNA inhibition,"hCD39 mRNA [2]; 0.12 μM, Table 9",76.16%
same,mRNA inhibition,"hCD39 mRNA [2]; 0.4 μM, Table 9",90.86%
same,mRNA inhibition,"hCD39 mRNA [2]; 1.1 μM, Table 9",95.99%
same,mRNA inhibition,"hCD39 mRNA [2]; 3.3 μM, Table 9",98.10%
same,mRNA inhibition,"hCD39 mRNA [2]; 10 μM, Table 9",98.77%
same,IC50,hCD39 mRNA [2]; [4],51.6 nM
same,Mean hCD39 mRNA expression normalized to HPRT1 relative to untreated control = 1,hCD39 mRNA [3],0.17
same,Relative hCD39 mRNA expression (compared to non-treated cells),hCD39 mRNA [3],0.15
"+G*+G*+T*T*T*G*T*G*T*G*A*G*A*G*C*+T (antisense GGTTTGTGTGAGAGCT; sugars from the 5' end l3 d12 l1, all phosphorothioate, methylation of C not given here) [A04060H]",Residual hCD39 mRNA expression relative to untreated cells (set as 1),hCD39 mRNA [1]; third screening round,0.08
same,mRNA inhibition,"hCD39 mRNA [2]; 0.45 nM, Table 12",0.00%
same,mRNA inhibition,"hCD39 mRNA [2]; 1.3 nM, Table 12",0.00%
same,mRNA inhibition,"hCD39 mRNA [2]; 4 nM, Table 12",0.00%
same,mRNA inhibition,"hCD39 mRNA [2]; 12 nM, Table 12",0.00%
same,mRNA inhibition,"hCD39 mRNA [2]; 40 nM, Table 12",49.14%
same,mRNA inhibition,"hCD39 mRNA [2]; 110 nM, Table 12",88.34%
same,mRNA inhibition,"hCD39 mRNA [2]; 330 nM, Table 12",96.71%
same,mRNA inhibition,"hCD39 mRNA [2]; 1000 nM, Table 12",97.82%
same,IC50,hCD39 mRNA [2]; third screening round (Table 12),20.5 nM
same,Residual hCD39 mRNA expression relative to untreated cells (set as 1),hCD39 mRNA [3]; third screening round,0.01
